Test: Comparative 5 minute biodistribution of A-E and 201TlCl in rats
Type: in vivo, female Sprague-Dawley rats
Details: rat, i.v. 25 uCi/kg
Procedure: The following pharmacological studies were conducted on Complex (A), prepared by the method of Example 1; Complex (B), prepared by the method of Example 2; Complex (C) prepared by the method of Example 4; Complex (D) prepared by the method of Example 6; and Complex (E) prepared by the method of Example 7. Where indicated, Thallium-201 was used for comparative purposes.
The biodistribution of the experimental ^99m Tc(I) complexes in rats was compared with Thallium-201, currently the radionuclide of choice for myocardial perfusion imaging. Complex A was supplied as a vacuum-evaporated preparation and reconstituted with 0.9% Sodium Chloride, Injection, U.S.P. The ^99m Tc(I) complexes and ^201 TlCl solutions were diluted to concentrations of 12.5 uCi/ml with 0.9% Sodium Chloride, Injection, U.S.P. for dosing. Groups of 4-12 female Sprague-Dawley rats with body weights ranging from 180-231 g received single intraveneous injections of 25uCi/kg of Complex A, Complex B, Complex C, Complex D, Complex E, or ^201 TlCl.
Animals were sacrificed 5 minutes after dosing and radioactivity concentrations were determined by gamma scintillation spectroscopy in blood, heart, liver, lungs, kidney and skeletal muscle. As a measurement of selectivity of myocardial uptake, heart/blood, heart/liver and heart/lung tissue ratios were determined.

## [Cl][201Tl] [^201 TlCl]
5 min, blood
  Mean % Dose/g or ml, Blood: 0.26 % Dose/g or ml
5 min, heart
  Mean % Dose/g or ml, Heart: 6.35 % Dose/g or ml
5 min, kidney
  Mean % Dose/g or ml, Kidney: 6.53 % Dose/g or ml
5 min, liver
  Mean % Dose/g or ml, Liver: 1.01 % Dose/g or ml
5 min, lung
  Mean % Dose/g or ml, Lung: 4.69 % Dose/g or ml
5 min, skeletal muscle
  Mean % Dose/g or ml, Muscle: 0.82 % Dose/g or ml
5 min after dosing
  Mean Tissue Ratio Heart/Blood: 24.31
  Mean Tissue Ratio Heart/Liver: 6.31
  Mean Tissue Ratio Heart/Lung: 1.35
